Target: PI3K delta (Homo sapiens (Human), UniProt O00329)
Assay: Luciferase-coupled chemiluminescence kinase assay (KinaseGlo, ATP consumption)
Format: biochemical
Method: Kinase activity and compound inhibition were investigated using one or more of the assay formats described below. The ATP concentrations used in the various assays were approximately equal to or less than the KM for each of the respective kinases. Dose-response experiments were performed using an intra-plate dilution scheme with 10 different inhibitor concentrations in a 384-well microtiter plate. […] Typically N should approximate unity. Curve fitting was performed using XLFit or ActivityBase. Luciferase-Coupled Chemiluminescence Assay Protocol
Kinase activity is measured as the percent of ATP consumed following the kinase reaction using luciferase-luciferin-coupled chemiluminescence. […] Kinase reactions were initiated by combining test compounds, kinase, and ATP in a 20 μL volume (6 μL volume for 1536-well plate). The reaction mixture was incubated at ambient temperature for 2 h. Following the kinase reaction, a 20 μL (or 3 μL for 1536-well plate) aliquot of KinaseGlo (Promega) was added and the chemiluminescence signal measured using an EnVision plate reader (Perkin Elmer).

PI3K delta, sequence (O00329 whole entry): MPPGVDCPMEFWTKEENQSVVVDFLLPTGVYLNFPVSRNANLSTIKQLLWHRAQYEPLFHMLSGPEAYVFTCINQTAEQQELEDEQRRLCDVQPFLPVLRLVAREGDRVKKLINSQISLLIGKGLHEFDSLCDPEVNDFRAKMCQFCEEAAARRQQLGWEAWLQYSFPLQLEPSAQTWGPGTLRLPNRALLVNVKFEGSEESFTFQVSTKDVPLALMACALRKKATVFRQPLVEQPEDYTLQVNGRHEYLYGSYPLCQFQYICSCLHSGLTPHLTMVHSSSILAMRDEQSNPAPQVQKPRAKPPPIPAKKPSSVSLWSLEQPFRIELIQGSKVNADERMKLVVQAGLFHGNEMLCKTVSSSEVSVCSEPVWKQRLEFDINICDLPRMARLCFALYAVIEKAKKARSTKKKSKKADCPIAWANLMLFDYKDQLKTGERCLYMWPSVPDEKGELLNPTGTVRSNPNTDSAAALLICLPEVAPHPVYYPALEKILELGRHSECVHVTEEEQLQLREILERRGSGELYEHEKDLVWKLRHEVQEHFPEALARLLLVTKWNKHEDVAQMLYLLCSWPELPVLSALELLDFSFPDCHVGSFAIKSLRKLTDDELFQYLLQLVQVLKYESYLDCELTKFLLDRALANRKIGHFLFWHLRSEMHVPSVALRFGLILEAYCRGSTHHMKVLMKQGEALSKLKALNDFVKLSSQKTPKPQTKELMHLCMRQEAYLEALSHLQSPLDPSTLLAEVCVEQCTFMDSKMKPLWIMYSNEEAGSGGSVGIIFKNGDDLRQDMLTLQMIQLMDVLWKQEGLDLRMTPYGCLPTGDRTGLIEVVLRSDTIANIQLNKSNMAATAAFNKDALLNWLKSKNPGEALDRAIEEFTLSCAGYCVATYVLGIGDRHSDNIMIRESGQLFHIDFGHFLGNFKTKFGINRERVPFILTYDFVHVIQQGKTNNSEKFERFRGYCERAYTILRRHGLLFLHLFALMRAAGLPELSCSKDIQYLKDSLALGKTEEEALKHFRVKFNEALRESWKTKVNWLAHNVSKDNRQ
PI3K delta, sequence (P27986 whole entry partner): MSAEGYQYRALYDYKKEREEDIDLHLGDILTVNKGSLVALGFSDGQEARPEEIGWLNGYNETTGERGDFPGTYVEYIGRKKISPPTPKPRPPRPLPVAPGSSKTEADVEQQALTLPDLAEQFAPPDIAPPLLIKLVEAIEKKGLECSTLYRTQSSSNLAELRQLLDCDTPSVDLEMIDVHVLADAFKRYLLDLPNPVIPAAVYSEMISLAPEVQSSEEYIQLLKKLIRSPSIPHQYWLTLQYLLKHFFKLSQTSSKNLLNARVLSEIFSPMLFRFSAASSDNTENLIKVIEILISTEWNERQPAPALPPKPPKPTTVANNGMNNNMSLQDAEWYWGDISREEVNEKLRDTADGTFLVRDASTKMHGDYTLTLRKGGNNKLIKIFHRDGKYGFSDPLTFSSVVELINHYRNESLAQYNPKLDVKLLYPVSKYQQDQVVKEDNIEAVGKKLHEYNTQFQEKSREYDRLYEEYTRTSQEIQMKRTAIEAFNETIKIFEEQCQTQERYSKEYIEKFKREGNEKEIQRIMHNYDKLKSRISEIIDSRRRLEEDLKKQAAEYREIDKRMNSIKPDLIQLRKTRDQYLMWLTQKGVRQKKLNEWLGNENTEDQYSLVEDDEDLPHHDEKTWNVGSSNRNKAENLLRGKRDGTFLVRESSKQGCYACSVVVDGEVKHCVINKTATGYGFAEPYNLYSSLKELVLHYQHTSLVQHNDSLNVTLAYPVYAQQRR

## Cc1cccc2cc(CNC(=O)c3nccnc3N)c(N3CCC(NC(=O)Cn4ccnn4)C3)nc12 (stereo not drawn) [Compound 45, 3-amino-N-[(8-methyl-2-{3-[(1H-1,2,3-triazol-1-ylacetyl)amino]pyrrolidin-1-yl}quinolin-3-yl)methyl]pyrazine-2-carboxamide]
  IC50: 500 to 1500 nM

## Cc1cccc2cc(CNC(=O)c3nccnc3N)c(N(Cc3cccnc3)Cc3cccnc3)nc12 [Compound 46, 3-amino-N-({2-[bis(pyridin-3-ylmethyl)amino]-8-methylquinolin-3-yl}methyl)pyrazine-2-carboxamide]
  IC50: 250 to 500 nM

## Cc1cccc2cc(CNC(=O)c3nccnc3N)c(N(Cc3ccccn3)Cc3ccccn3)nc12 [Compound 47, 3-amino-N-({2-[bis(pyridin-2-ylmethyl)amino]-8-methylquinolin-3-yl}methyl)pyrazine-2-carboxamide]
  IC50: 500 to 1500 nM

## Cc1cccc2cc(CNC(=O)c3nccnc3N)c(N(C)CCN(C)C(=O)Cn3cccn3)nc12 [Compound 49, 3-amino-N-{[8-methyl-2-(methyl{2-[methyl(1H-pyrazol-1-ylacetyl)amino]ethyl}amino)quinolin-3-yl]methyl}pyrazine-2-carboxamide]
  IC50: < 50 nM

## Cc1cccc2cc(CNC(=O)c3nccnc3N)c(CCCO)nc12 [Compound 50, 3-amino-N-{[2-(3-hydroxypropyl)-8-methylquinolin-3-yl]methyl}pyrazine-2-carboxamide]
  IC50: 500 to 1500 nM

## Cc1cccc2cc(CNC(=O)c3nccnc3N)c(N(C)CCNC(=O)Cn3ccnn3)nc12 [Compound 51, 3-amino-N-{[8-methyl-2-(methyl{2-[(1H-1,2,3-triazol-1-ylacetyl)amino]ethyl}amino)quinolin-3-yl]methyl}pyrazine-2-carboxamide]
  IC50: 50 to 250 nM

## Cc1cccc2nc(CNC(=O)c3nccnc3N)c(-c3ccccc3CN(C)C)cc12 [Compound 52, 3-amino-N-[(3-{2-[(dimethylamino)methyl]phenyl}-5-methylquinolin-2-yl)methyl]pyrazine-2-carboxamide]
  IC50: < 50 nM

## Cc1cccc2cc(CNC(=O)c3nccnc3N)c(N3CCCN(C(=O)Cn4cnc5ccccc54)CC3)nc12 [Compound 53, 3-amino-N-({2-[4-(1H-benzimidazol-1-ylacetyl)-1,4-diazepan-1-yl]-8-methylquinolin-3-yl}methyl)pyrazine-2-carboxamide]
  IC50: 500 to 1500 nM

## Cc1cccc2cc(CNC(=O)c3nccnc3N)c(N3CCCN(C(=O)Cn4ccnc4)CC3)nc12 [Compound 54, 3-amino-N-({2-[4-(1H-imidazol-1-ylacetyl)-1,4-diazepan-1-yl]-8-methylquinolin-3-yl}methyl)pyrazine-2-carboxamide]
  IC50: 500 to 1500 nM

## Cc1cccc2cc(CNC(=O)c3nccnc3N)c(N3CCCN(C(=O)Cn4ccnc4C)CC3)nc12 [Compound 55, 3-amino-N-[(8-methyl-2-{4-[(2-methyl-1H-imidazol-1-yl)acetyl]-1,4-diazepan-1-yl}quinolin-3-yl)methyl]pyrazine-2-carboxamide]
  IC50: 500 to 1500 nM

## CN(C)C(=O)c1ccccc1-c1cc2ccccc2nc1CNC(=O)c1nccnc1N [Compound 56, 3-amino-N-[(3-{2-[(dimethylamino)carbonyl]phenyl}quinolin-2-yl)methyl]pyrazine-2-carboxamide]
  IC50: 250 to 500 nM

## Cc1cccc2cc(CNC(=O)c3nccnc3N)c(N3CCCN(Cc4cccn4C)CC3)nc12 [Compound 57, 3-amino-N-[(8-methyl-2-{4-[(1-methyl-1H-pyrrol-2-yl)methyl]-1,4-diazepan-1-yl}quinolin-3-yl)methyl]pyrazine-2-carboxamide]
  IC50: 500 to 1500 nM

## Cc1ccc(CN2CCCN(c3nc4c(C)cccc4cc3CNC(=O)c3nccnc3N)CC2)o1 [Compound 58, 3-amino-N-[(8-methyl-2-{4-[(5-methylfuran-2-yl)methyl]-1,4-diazepan-1-yl}quinolin-3-yl)methyl]pyrazine-2-carboxamide]
  IC50: 500 to 1500 nM

## Nc1nccnc1C(=O)NCc1nc2ccccc2cc1-c1ccccc1CN1CCCCC1 [Compound 59, 3-amino-N-({3-[2-(piperidin-1-ylmethyl)phenyl]quinolin-2-yl}methyl)pyrazine-2-carboxamide]
  IC50: 50 to 250 nM

## Cc1cccc2cc(CNC(=O)c3nccnc3N)c(N3CCCN(C(=O)Cn4ccnn4)CC3)nc12 [Compound 60, 3-amino-N-({8-methyl-2-[4-(1H-1,2,3-triazol-1-ylacetyl)-1,4-diazepan-1-yl]quinolin-3-yl}methyl)pyrazine-2-carboxamide]
  IC50: 250 to 500 nM

## Cc1cccc2cc(CNC(=O)c3nccnc3N)c(N3CCCN(C(=O)Cn4nccn4)CC3)nc12 [Compound 61, 3-amino-N-({8-methyl-2-[4-(2H-1,2,3-triazol-2-ylacetyl)-1,4-diazepan-1-yl]quinolin-3-yl}methyl)pyrazine-2-carboxamide]
  IC50: 500 to 1500 nM

## Cc1cccc2cc(CNC(=O)c3nccnc3N)c(N3CCCN(Cc4nccn4C)CC3)nc12 [Compound 62, 3-amino-N-[(8-methyl-2-{4-[(1-methyl-1H-imidazol-2-yl)methyl]-1,4-diazepan-1-yl}quinolin-3-yl)methyl]pyrazine-2-carboxamide]
  IC50: 500 to 1500 nM

## Cc1cccc2cc(CNC(=O)c3nccnc3N)c(N3CCCN(Cc4cncn4C)CC3)nc12 [Compound 63, 3-amino-N-[(8-methyl-2-{4-[(1-methyl-1H-imidazol-5-yl)methyl]-1,4-diazepan-1-yl}quinolin-3-yl)methyl]pyrazine-2-carboxamide]
  IC50: 50 to 250 nM

## Cc1cccc2cc(CNC(=O)c3nccnc3N)c(N3CCCN(Cc4cccnc4)CC3)nc12 [Compound 64, 3-amino-N-({8-methyl-2-[4-(pyridin-3-ylmethyl)-1,4-diazepan-1-yl]quinolin-3-yl}methyl)pyrazine-2-carboxamide]
  IC50: 250 to 500 nM

## Cc1cccc2cc(CNC(=O)c3nccnc3N)c(N3CCCN(Cc4ccncc4)CC3)nc12 [Compound 65, 3-amino-N-({8-methyl-2-[4-(pyridin-4-ylmethyl)-1,4-diazepan-1-yl]quinolin-3-yl}methyl)pyrazine-2-carboxamide]
  IC50: 500 to 1500 nM

## Cc1cccc2cc(CNC(=O)c3nccnc3N)c(N3CCCN(CC(=O)N(C)C)CC3)nc12 [Compound 66, 3-amino-N-[(2-{4-[2-(dimethylamino)-2-oxoethyl]-1,4-diazepan-1-yl}-8-methylquinolin-3-yl)methyl]pyrazine-2-carboxamide]
  IC50: 500 to 1500 nM

## CCCN1CCC[C@@H]1C(=O)N(C)CCN(C)c1nc2c(C)cccc2cc1CNC(=O)c1nccnc1N [Compound 67, 3-amino-N-{[8-methyl-2-(methyl{2-[methyl(1-propyl-D-prolyl)amino]ethyl}amino)quinolin-3-yl]methyl}pyrazine-2-carboxamide]
  IC50: < 50 nM

## Cc1cccc2cc(CNC(=O)c3nccnc3N)c(N(C)CCN(C)Cc3ccccn3)nc12 [Compound 68, 3-amino-N-{[8-methyl-2-(methyl{2-[methyl(pyridin-2-ylmethyl)amino]ethyl}amino)quinolin-3-yl]methyl}pyrazine-2-carboxamide]
  IC50: 50 to 250 nM

## CN(C)Cc1cccc(-c2cc3ccccc3nc2CNC(=O)c2nccnc2N)c1 [Compound 69, 3-amino-N-[(3-{3-[(dimethylamino)methyl]phenyl}quinolin-2-yl)methyl]pyrazine-2-carboxamide]
  IC50: 250 to 500 nM

## Nc1nccnc1C(=O)NCc1nc2ccccc2cc1-c1ccccc1CN1CCOCC1 [Compound 70, 3-amino-N-({3-[2-(morpholin-4-ylmethyl)phenyl]quinolin-2-yl}methyl)pyrazine-2-carboxamide]
  IC50: 250 to 500 nM

## Nc1nccnc1C(=O)NCc1nc2ccccc2cc1-c1ccc(CN2CCOCC2)cc1 [Compound 71, 3-amino-N-({3-[4-(morpholin-4-ylmethyl)phenyl]quinolin-2-yl}methyl)pyrazine-2-carboxamide]
  IC50: 500 to 1500 nM

## Nc1nccnc1C(=O)NCc1nc2ccccc2cc1-c1cccc(CN2CCOCC2)c1 [Compound 72, 3-amino-N-({3-[3-(morpholin-4-ylmethyl)phenyl]quinolin-2-yl}methyl)pyrazine-2-carboxamide]
  IC50: 500 to 1500 nM

## Cc1cccc2cc(CNC(=O)c3nccnc3N)c(N(C)CCN(C)C(=O)[C@H]3CCCN3C(C)C)nc12 [Compound 73, 3-amino-N-({8-methyl-2-[methyl(2-{methyl[1-(1-methylethyl)-D-prolyl]amino}ethyl)amino]quinolin-3-yl}methyl)pyrazine-2-carboxamide]
  IC50: < 50 nM

## Cc1ccccc1-c1cc2ccccc2nc1CNC(=O)c1cnc(N)nc1 [Compound 74, 2-amino-N-{[3-(2-methylphenyl)quinolin-2-yl]methyl}pyrimidine-5-carboxamide]
  IC50: 500 to 1500 nM

## Cc1ccccc1-c1cc2ccccc2nc1C(C)NC(=O)c1nccnc1N (stereo not drawn) [Compound 75, 3-amino-N-{1-[3-(2-methylphenyl)quinolin-2-yl]ethyl}pyrazine-2-carboxamide]
  IC50: 250 to 500 nM

## CNC(=O)CN(C)CCN(C)c1nc2c(C)cccc2cc1CNC(=O)c1nccnc1N [Compound 76, 3-amino-N-({8-methyl-2-[methyl(2-{methyl[2-(methylamino)-2-oxoethyl]amino}ethyl)amino]quinolin-3-yl}methyl)pyrazine-2-carboxamide]
  IC50: 50 to 250 nM

## Cc1cccc2cc(CNC(=O)c3nccnc3N)c(N(C)CCN(C)CC(=O)N3CCOCC3)nc12 [Compound 77, 3-amino-N-{[8-methyl-2-(methyl{2-[methyl(2-morpholin-4-yl-2-oxoethyl)amino]ethyl}amino)quinolin-3-yl]methyl}pyrazine-2-carboxamide]
  IC50: 50 to 250 nM

## Cc1cccc2cc(CNC(=O)c3nccnc3N)c(N(C)CCN(C)C(=O)c3cnccn3)nc12 [Compound 78, 3-amino-N-{[8-methyl-2-(methyl{2-[methyl(pyrazin-2-ylcarbonyl)amino]ethyl}amino)quinolin-3-yl]methyl}pyrazine-2-carboxamide]
  IC50: 500 to 1500 nM

From patent publication US9670212B2, “Inhibitors of PI3K-delta and methods of their use and manufacture” (Exelixis, Inc., priority 2010, dated 2017)
